Article PMC7976169 (Antiviral research, 2020)
Like-named read-outs stand apart in the source and are kept apart here. One block for each compound: values may come before it.

What was measured:
[1] = test system: Uninfected Vero cells; assay type: in vitro ADME
[2] = test system: HSV; details: cited from earlier work
[3] = test system: HSV-1 KOS1.1-infected Vero cells; experiment: Biosynthesis of nucleoside analog triphosphate in HSV-infected cells; assay type: in vitro ADME
[4] = test system: HCMV; details: cited from earlier work
[5] = in vivo; cited from earlier work
[6] = test system: HCMV Towne-infected HFF cells; experiment: Biosynthesis of nucleoside analog triphosphate in HCMV-infected cells; assay type: in vitro ADME; details: for Other metabolites detected: five times the EC50
[7] = test system: Uninfected HFF cells; experiment: Triphosphate formation in uninfected HFF cells; assay type: in vitro ADME
[8] = read-out: EC50 against HCMV, ref Zhou et al., 2004
[9] = read-out: EC50 vs HCMV, ref Qiu et al., 1998

- Levels of phosphates in uninfected Vero cells [1]: no measurable level
SMILES: Nc1nc2c(ncn2COCCO)c(=O)[nH]1 [ACV, acyclovir]
- EC50 ([2]; reported EC50 of ACV, ref Furman et al., 1981): 1000 nM

SMILES: Nc1nc2c(ncn2COCCOP(=O)(O)OP(=O)(O)OP(=O)(O)O)c(=O)[nH]1 [ACV-TP]
- Triphosphate level at 8 hours ([3]; HSV-infected cells, 5.0 μM ACV, 8 hours): 3.8 ± 0.3 pmol/10^6 cells
- Delay in production of triphosphate ([3]; HSV-infected cells, delay due to lack of HSV-TK early after infection): ~2 h

SMILES: Nc1nc2c(ncn2/C=C2/CC2(CO)CO)c(=O)[nH]1 [FCV, Filociclovir]
- EC50 [4, 8]: 460 nM
- Fold greater efficacy against HCMV compared to GCV ([4]; ref Zhou et al., 2004): 10 fold

- Other metabolites detected [6]: no other metabolites
- Levels of phosphates in uninfected HFF cells [7]: no measurable levels
SMILES: Nc1nc(O)c2ncn(COC(CO)CO)c2n1 [GCV, ganciclovir]
- Incidence of neutropenia [5]: ~ 30 % of patients
- EC50 [4, 8]: 4100 nM
- EC50 [4, 9]: 7400 nM

- Peak Triphosphate Level ([6]; […], maximum at 120 hours): 42.6 ± 3.7 pmol/10^6 cells
SMILES: Nc1nc(O)c2ncn(COC(CO)COP(=O)(O)OP(=O)(O)OP(=O)(O)O)c2n1 (stereo not drawn) [GCV-TP]

SMILES: CCCCOc1nc(N)nc2c1ncn2C=C1CC1(CO)CO [MBX-2168]
- Other metabolites detected ([3]; HSV-infected Vero cells, five times the EC50): no other metabolites
- EC50 ([4]; read-out: EC50 HCMV, ref Prichard et al., 2013): 800 nM
- Other metabolites detected [6]: no other metabolites
- EC50 ([2]; read-out: EC50 HSV, ref Prichard et al., 2013): 6700 nM

SMILES: Nc1ccn(C[C@@H](CO)OCP(=O)(O)O)c(=O)n1 [cidofovir]
- Incidence rate of nephrotoxicity [5]: ~ 50%

SMILES: O=C(O)P(=O)(O)O [foscarnet]
- Incidence rate of nephrotoxicity [5]: ~ 50%

- Other metabolites detected [6]: no other metabolites
- Levels of phosphates in uninfected HFF cells [7]: no measurable levels
SMILES: Nc1nc2c(ncn2/C=C2/CC2CO)c(=O)[nH]1 (stereo not drawn) [synguanol]
- EC50 [4, 9]: 2100 nM
